Calls of active or inactive are those of the source. No cut-off for these calls is given here.

A short description of assay [1]: Inhibition against Alpha Glucosidase from yeast at 1 mM; (ni=no inhibition).
In assay [2] the target is T1, Glucoamylase 1 (Rhizopus oryzae) (UniProt P07683).
T1 sequence (whole entry): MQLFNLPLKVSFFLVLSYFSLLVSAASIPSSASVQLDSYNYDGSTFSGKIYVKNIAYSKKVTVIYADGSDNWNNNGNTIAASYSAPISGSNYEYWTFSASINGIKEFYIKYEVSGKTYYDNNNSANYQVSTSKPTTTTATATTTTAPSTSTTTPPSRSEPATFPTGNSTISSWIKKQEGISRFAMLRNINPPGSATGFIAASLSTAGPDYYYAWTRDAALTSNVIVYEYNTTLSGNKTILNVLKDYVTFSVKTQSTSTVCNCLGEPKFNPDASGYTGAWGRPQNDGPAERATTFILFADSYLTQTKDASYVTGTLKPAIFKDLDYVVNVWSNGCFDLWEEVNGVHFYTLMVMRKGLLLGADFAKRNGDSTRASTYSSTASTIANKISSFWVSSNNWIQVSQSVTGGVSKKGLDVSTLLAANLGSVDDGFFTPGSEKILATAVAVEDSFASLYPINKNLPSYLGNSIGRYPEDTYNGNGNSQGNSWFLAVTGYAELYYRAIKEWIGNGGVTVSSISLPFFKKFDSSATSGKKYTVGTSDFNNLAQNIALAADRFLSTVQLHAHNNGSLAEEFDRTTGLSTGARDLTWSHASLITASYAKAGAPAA
The assay is described as follows: Inhibition against Amyloglucosidase from Rhizopus mold at 1 mM; (ni=no inhibition).

A short description of assay [3]: Inhibitory concentration against Beta Glucosidase Almonds. More on the design: species or system Prunus dulcis.
Assay [4] addresses T2, Exo-1,4-beta-xylosidase xlnD (Aspergillus niger) (UniProt O00089).
T2 sequence (whole entry): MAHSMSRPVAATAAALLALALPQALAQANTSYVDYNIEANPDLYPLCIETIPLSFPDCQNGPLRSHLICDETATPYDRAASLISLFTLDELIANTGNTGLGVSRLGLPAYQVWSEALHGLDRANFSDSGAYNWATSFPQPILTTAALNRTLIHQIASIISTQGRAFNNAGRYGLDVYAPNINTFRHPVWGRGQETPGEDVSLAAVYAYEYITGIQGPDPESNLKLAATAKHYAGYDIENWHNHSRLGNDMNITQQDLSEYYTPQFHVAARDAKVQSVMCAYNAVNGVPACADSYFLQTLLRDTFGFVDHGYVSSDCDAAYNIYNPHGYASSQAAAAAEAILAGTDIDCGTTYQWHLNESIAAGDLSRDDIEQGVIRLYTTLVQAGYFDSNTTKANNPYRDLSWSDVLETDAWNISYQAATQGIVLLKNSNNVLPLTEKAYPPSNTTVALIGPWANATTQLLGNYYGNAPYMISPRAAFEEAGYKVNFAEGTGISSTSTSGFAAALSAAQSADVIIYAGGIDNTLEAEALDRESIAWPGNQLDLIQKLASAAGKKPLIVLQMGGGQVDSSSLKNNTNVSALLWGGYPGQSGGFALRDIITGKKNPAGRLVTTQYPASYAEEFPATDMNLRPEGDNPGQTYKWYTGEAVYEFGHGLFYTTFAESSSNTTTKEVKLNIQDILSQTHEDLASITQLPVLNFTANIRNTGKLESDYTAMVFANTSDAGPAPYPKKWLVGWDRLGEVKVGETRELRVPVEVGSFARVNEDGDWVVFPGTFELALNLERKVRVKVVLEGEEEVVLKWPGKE
The assay is described as follows: Inhibition against Beta-xylosidase from Aspergillus niger at 1 mM; (ni=no inhibition).

Assay [5] deals with T3, Alpha-glucosidase (Oryza sativa Japonica Group) (UniProt Q9LGC6).
T3 sequence (whole entry): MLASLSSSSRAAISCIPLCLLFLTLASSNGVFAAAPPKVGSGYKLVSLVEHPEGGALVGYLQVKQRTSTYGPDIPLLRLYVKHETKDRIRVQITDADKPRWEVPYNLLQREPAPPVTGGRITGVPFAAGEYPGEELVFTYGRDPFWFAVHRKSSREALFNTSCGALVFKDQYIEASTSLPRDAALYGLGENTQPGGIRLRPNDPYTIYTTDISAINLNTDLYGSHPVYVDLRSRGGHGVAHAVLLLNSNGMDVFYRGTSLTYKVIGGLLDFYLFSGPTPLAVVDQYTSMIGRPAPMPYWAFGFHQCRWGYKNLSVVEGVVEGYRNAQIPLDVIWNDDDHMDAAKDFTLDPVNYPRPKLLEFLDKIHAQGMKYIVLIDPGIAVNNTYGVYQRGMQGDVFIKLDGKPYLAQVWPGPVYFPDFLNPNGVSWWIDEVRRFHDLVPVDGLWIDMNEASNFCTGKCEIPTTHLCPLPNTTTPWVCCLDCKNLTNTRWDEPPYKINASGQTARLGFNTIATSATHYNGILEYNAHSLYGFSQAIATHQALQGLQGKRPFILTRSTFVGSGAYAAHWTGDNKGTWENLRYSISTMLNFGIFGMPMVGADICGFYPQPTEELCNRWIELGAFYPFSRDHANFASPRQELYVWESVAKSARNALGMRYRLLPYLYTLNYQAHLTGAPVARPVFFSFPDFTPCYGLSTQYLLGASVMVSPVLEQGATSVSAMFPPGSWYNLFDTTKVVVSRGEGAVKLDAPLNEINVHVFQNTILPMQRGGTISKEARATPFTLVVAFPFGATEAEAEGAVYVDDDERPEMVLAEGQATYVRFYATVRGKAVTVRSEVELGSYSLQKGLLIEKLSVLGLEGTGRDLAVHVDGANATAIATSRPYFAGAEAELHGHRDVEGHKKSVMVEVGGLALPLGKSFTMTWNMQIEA
The assay is described as follows: Inhibition against Alpha Glucosidase from rice at 1 mM; (ni=no inhibition).

For assay [6], the target named is Glucoamylase (Aspergillus niger) (UniProt P69328). The assay is described as follows: Inhibition against Amyloglucosidase from Aspergillus niger at 1 mM; (ni=no inhibition).
Glucoamylase (Aspergillus niger), sequence (P69328 whole entry): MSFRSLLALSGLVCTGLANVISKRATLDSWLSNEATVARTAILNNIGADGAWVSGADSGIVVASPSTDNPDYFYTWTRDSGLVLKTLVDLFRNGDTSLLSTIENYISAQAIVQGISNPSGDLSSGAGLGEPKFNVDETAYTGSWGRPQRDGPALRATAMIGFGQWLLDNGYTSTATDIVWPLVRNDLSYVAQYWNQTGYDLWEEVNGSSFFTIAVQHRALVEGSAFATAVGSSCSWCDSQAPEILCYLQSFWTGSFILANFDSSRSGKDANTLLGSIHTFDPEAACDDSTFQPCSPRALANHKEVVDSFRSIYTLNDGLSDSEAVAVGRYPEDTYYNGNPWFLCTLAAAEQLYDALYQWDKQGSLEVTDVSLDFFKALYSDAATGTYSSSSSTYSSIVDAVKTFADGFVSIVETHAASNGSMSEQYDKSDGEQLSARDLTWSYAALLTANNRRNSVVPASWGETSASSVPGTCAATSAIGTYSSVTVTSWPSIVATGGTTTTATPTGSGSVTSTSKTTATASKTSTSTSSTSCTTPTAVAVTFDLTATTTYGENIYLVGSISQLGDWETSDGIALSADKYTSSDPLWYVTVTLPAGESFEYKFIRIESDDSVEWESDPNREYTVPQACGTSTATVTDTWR
Assay [7] has as its system Prunus dulcis. The assay is described as follows: Percent inhibition against Beta Glucosidase from Almonds at 1 mM.
The next assay addresses Beta-glucosidase A (Caldicellulosiruptor saccharolyticus, UniProt P10482). The assay is described as follows: Inhibitory concentration against Beta Glucosidase Caldocellum saccharolyticum.
The nature of assay [8]: Inhibitory concentration against Beta Glucosidase from Almonds. Also on record: species or system Prunus dulcis.
The nature of assay [9]: Inhibitory activity against Beta Glucosidase from Almonds. Also on record: species or system Prunus dulcis.
Assay [10] addresses T1, Glucoamylase 1 (Rhizopus oryzae). The assay is described as follows: Percent inhibition against Amyloglucosidase from Rhizopus mold at 1 mM.
Assay [11] concerns Prunus dulcis. The assay is described as follows: Inhibition against Beta Glucosidase from Almonds at 1 mM; (ni=no inhibition).
In assay [12] the target is Beta-glucosidase A (Caldicellulosiruptor saccharolyticus) (UniProt P10482). The assay is described as follows: Inhibition against Beta Glucosidase from Caldocellum saccharolyticum at 1 mM; (ni=no inhibition).
Beta-glucosidase A (Caldicellulosiruptor saccharolyticus), sequence (P10482 whole entry): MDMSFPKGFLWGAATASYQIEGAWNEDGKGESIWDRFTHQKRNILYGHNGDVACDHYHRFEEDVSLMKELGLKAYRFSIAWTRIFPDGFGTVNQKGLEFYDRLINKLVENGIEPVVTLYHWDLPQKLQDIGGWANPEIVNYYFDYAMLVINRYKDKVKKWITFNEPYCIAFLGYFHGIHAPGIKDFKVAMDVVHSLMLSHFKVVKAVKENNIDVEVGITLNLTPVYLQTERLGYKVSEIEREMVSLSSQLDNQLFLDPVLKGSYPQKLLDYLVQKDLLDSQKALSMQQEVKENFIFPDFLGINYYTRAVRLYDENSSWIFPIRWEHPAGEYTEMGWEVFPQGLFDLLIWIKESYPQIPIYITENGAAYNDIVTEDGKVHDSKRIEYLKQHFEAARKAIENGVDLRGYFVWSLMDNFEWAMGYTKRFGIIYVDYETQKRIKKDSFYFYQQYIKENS
Assay [13] can be described thus: Percent inhibition against Alpha Glucosidase from yeast at 1 mM.

Beta-glucosidase A, sequence (P10482 whole entry): as above

Take `CCCCCCCCNC1C=CC(O)C(O)C1O` (racemic): the inhibition result in assay [1], in assay [2], in [4], in assay [5] and in [6] was “inactive” throughout. In addition, it took 69 µM to reach half-maximal inhibition in assay [3] (IC50). Also, in the assay on Prunus dulcis [7], the inhibition (commonly the percentage by which the read-out fell short of the control) was 85%.

With `OC1C=CC(NCc2ccc(-c3ccccc3)cc2)C(O)C1O` (stereo in doubt; 4i), the IC50 (commonly the concentration needed to halve the response being measured) came to 35 µM on Beta-glucosidase A and 32 µM in [8]. The Ki (in general, the dissociation constant of the complex between target and ligand, obtained from inhibition or displacement) in assay [9] worked out at 8 µM.

Turning to `Oc1ccccc1CNC1C=CC(O)C(O)C1O` (stereo in doubt; 4k), the values for the inhibition in assay [10] and in assay [13] were 29% and 41%, respectively. The inhibition entry (in the assay with Prunus dulcis [11]; in assay [12]; in assay [4]; in [5]; in [6]) was “inactive” each time.

The values above are taken from ChEMBL document CHEMBL1139626, “Total asymmetric synthesis of (-)-conduramine B-1 and of its enantiomer. N-Benzyl derivatives of conduramine B-1 are beta-glucosidase inhibitors” (Bioorg Med Chem Lett, 2005).
